In BindingDB's records for doi:10.7270/Q2CV4GM1 (D3R/Abbott, 2015):
Where “and” joins values, the source holds several entries; their conditions need not be identical. Equal entries are not always repeated.

Biological target: T1, Tyrosine-protein kinase SYK [355-635] (Homo sapiens, UniProt P43405)
T1 construct: 355-635
Assay: SYK assay_HTRF

Row | Structure (SMILES) | IC50
1 | CCN(CC)C(=O)c1ccc(Nc2nccc(Nc3cccc4[nH]ncc34)n2)cc1 [GTC000150A] | 0.315 µM
2 | NS(=O)(=O)c1ccc(Nc2nccc(Nc3cccc4[nH]ncc34)n2)cc1 [GTC000181A] | 0.0655 µM and 0.211 µM and 0.194 µM and 0.162 µM and 0.0729 µM
3 | Oc1ccc(Nc2nccc(Nc3cccc4[nH]ncc34)n2)cc1 [GTC000138A] | 0.195 µM and 0.0505 µM
4 | COCCN(c1ccnc(Nc2ccc3nn[nH]c3c2)n1)c1cccc2[nH]ncc12 [GTC000322A] | 0.0205 µM
5 | NS(=O)(=O)c1cccc(Nc2nccc(N(CCCCO)c3cccc4[nH]ncc34)n2)c1 [GTC000356A] | 0.0593 µM
6 | COCCCN(c1ccnc(Nc2cccc(C(N)=O)c2)n1)c1cccc2[nH]ncc12 [GTC000324A] | 0.0128 µM and 0.0619 µM
7 | CCN(c1nc(Nc2ccc3c(c2)[nH]c(=O)n3C)ncc1F)c1cccc2[nH]ncc12 [GTC000283A] | 0.00813 µM
8 | CN(c1nc(Nc2ccc3c(cnn3C)c2)ncc1F)c1cccc2[nH]ncc12 [GTC000303A] | 0.0115 µM
9 | Cn1c(=O)n(C)c2cc(Nc3nccc(Nc4cccc5[nH]ncc45)n3)ccc21 [GTC000158A] | 0.0986 µM and 0.0891 µM and 0.244 µM
10 | CCN(c1nc(Nc2ccc3c(c2)CCN3C(C)=O)ncc1F)c1cccc2[nH]ncc12 [GTC000319A] | 0.0182 µM
11 | CCN(c1nc(Nc2ccc3c(c2)NC(=O)CO3)ncc1F)c1cccc2[nH]ncc12 [GTC000357A] | 0.0679 µM
12 | CCN(c1nc(Nc2ccc3cn[nH]c3c2)ncc1F)c1cccc2[nH]ncc12 [GTC000247A] | 0.00425 µM
13 | CN1C(=O)c2ccc(Nc3nccc(Nc4cccc5[nH]ncc45)n3)cc2C1=O [GTC000170A] | 0.573 µM
14 | O=C(Cc1ccc(Nc2nccc(Nc3cccc4[nH]ncc34)n2)cc1)Nc1cccc(Cl)c1 [GTC000213A] | 1.39 µM
15 | Cc1noc(NS(=O)(=O)Cc2ccc(Nc3nccc(Nc4cccc5[nH]ncc45)n3)cc2)c1C [GTC000200A] | 0.887 µM and 1.81 µM
16 | O=C(Cc1ccc(Nc2nccc(Nc3cccc4[nH]ncc34)n2)cc1)Nc1cccnc1 [GTC000219A] | 0.543 µM
17 | CCN(c1nc(Nc2cccc(-c3cnco3)c2)ncc1F)c1cccc2[nH]ncc12 [GTC000306A] | 0.00902 µM and 0.0166 µM and 0.0261 µM
18 | CCN(c1nc(Nc2ccc(-c3cnco3)c(OC)c2)ncc1F)c1cccc2[nH]ncc12 [GTC000362A] | 0.0873 µM
19 | c1cc(Nc2ccnc(Nc3ccc4[nH]ncc4c3)n2)c2cn[nH]c2c1 [GTC000221A] | 0.164 µM and 0.0782 µM and 0.235 µM
20 | Cc1ccc(S(=O)(=O)Nc2ccc(Nc3nccc(Nc4cccc5[nH]ncc45)n3)cc2)cc1 [GTC000220A] | 0.916 µM
21 | O=c1[nH]c2ccc(Nc3ncc(F)c(N(CCCO)c4cccc5[nH]ncc45)n3)cc2[nH]1 [GTC000262A] | 0.00509 µM
22 | CCN(c1nc(Nc2ccc3c(c2)S(=O)(=O)N(CC)C3)ncc1F)c1cccc2[nH]ncc12 [GTC000307A] | 0.0162 µM and 0.014 µM
23 | Cc1cc(=O)[nH]c2ccc(Nc3nccc(Nc4cccc5[nH]ncc45)n3)cc12 [GTC000159A] | 0.0281 µM
24 | COc1cc(Nc2nccc(Nc3cccc4[nH]ncc34)n2)cc(OC)c1 [GTC000118A] | 0.0353 µM and 0.0671 µM and 0.0935 µM and 0.203 µM
25 | CNC(=O)CN(c1nc(Nc2ccc3c(c2)S(=O)(=O)NC3)ncc1F)c1cccc2[nH]ncc12 [GTC000358A] | 0.0818 µM

Row | Structure (SMILES) | IC50
26 | O=S(=O)(c1cccc(Nc2nccc(Nc3cccc4[nH]ncc34)n2)c1)N1CCCCC1 [GTC000179A] | 4.16 µM
27 | COCCCN(c1nc(Nc2cccc(S(C)(=O)=O)c2)ncc1F)c1cccc2[nH]ncc12 [GTC000347A] | 0.0333 µM
28 | O=C(Cc1ccc(Nc2nccc(Nc3cccc4[nH]ncc34)n2)cc1)Nc1ccc(Cl)cc1 [GTC000214A] | 1.4 µM
29 | CCN(c1nc(Nc2ccc(C(=O)NC)cc2)ncc1F)c1cccc2[nH]ncc12 [GTC000271A] | 0.00662 µM
30 | Cc1cc(NS(=O)(=O)c2ccc(Nc3nccc(Nc4cccc5[nH]ncc45)n3)cc2)no1 [GTC000189A] | 0.741 µM and 0.942 µM and 0.582 µM
31 | c1cc(Nc2ccnc(Nc3ccc4c(c3)CCC4)n2)c2cn[nH]c2c1 [GTC000142A] | 0.114 µM and 0.255 µM
32 | NCCCN(c1ccnc(Nc2ccc3[nH]c(=O)[nH]c3c2)n1)c1cccc2[nH]ncc12 [GTC000293A] | 0.00929 µM
33 | O=S1(=O)NCc2ccc(Nc3nccc(N(C[C@@H](O)CO)c4cccc5[nH]ncc45)n3)cc21 [GTC000304A] | 0.0136 µM
34 | O=S(=O)(O)c1cccc(Nc2nccc(Nc3cccc4[nH]ncc34)n2)c1 [GTC000190A] | 1.1 µM
35 | CCN(c1nc(Nc2ccc3c(c2)S(=O)(=O)N(CC2CC2)C3)ncc1F)c1cccc2[nH]ncc12 [GTC000330A] | 0.0362 µM and 0.0194 µM
36 | O=C1CCCN1CCCNS(=O)(=O)Cc1ccc(Nc2nccc(Nc3cccc4[nH]ncc34)n2)cc1 [GTC000202A] | 0.706 µM
37 | Cn1cnc2cc(Nc3nccc(Nc4cccc5[nH]ncc45)n3)ccc21 [GTC000162A] | 0.11 µM and 0.094 µM and 0.245 µM
38 | CC(C)(C)c1ccc(Nc2nccc(Nc3cccc4[nH]ncc34)n2)cc1 [GTC000176A] | 0.508 µM
39 | Cc1ncoc1-c1ccc(Nc2nccc(Nc3cccc4[nH]ncc34)n2)cc1 [GTC000163A] | 0.149 µM and 0.221 µM
40 | CCN(c1nc(Nc2cc(S(=O)(=O)NCC3CCCO3)ccc2OC)ncc1F)c1cccc2[nH]ncc12 (centres undefined) [GTC000373A] | 0.624 µM
41 | Cc1ncoc1-c1cccc(Nc2nccc(N(CCCO)c3cccc4[nH]ncc34)n2)c1 [GTC000224A] | 0.0111 µM
42 | CCN(c1nc(Nc2cccc(-c3cnco3)c2)ncc1Cl)c1cccc2[nH]ncc12 [GTC000317A] | 0.00993 µM and 0.0248 µM and 0.0413 µM
43 | CNS(=O)(=O)Cc1ccc(Nc2nccc(Nc3cccc4[nH]ncc34)n2)cc1 [GTC000195A] | 0.426 µM
44 | c1cc(Nc2nccc(Nc3cccc4[nH]ncc34)n2)cc(-c2cc[nH]n2)c1 [GTC000126A] | 0.0223 µM and 0.0419 µM
45 | O=C1CCc2ccc(Nc3nccc(Nc4cccc5[nH]ncc45)n3)cc21 [GTC000116A] | 0.195 µM and 0.146 µM
46 | NS(=O)(=O)c1cccc(Nc2nccc(N(CCCO)c3cccc4[nH]ncc34)n2)c1 [GTC000259A] | 0.00502 µM
47 | NCCCCCN(c1ccnc(Nc2ccc3[nH]c(=O)[nH]c3c2)n1)c1cccc2[nH]ncc12 [GTC000269A] | 0.00697 µM
48 | CN(c1nc(Nc2cccc(S(N)(=O)=O)c2)ncc1F)c1cccc2[nH]ncc12 [GTC000337A] | 0.0228 µM
49 | O=C(Cc1ccc(Nc2nccc(Nc3cccc4[nH]ncc34)n2)cc1)Nc1ccncc1 [GTC000216A] | 0.828 µM
50 | CCCN(c1nc(Nc2ccc3c(c2)S(=O)(=O)NC3)ncc1F)c1cccc2[nH]ncc12 [GTC000243A] | 0.00409 µM and 0.00313 µM and 0.00356 µM and 0.00955 µM and 0.005 µM and 0.0041 µM and 0.00304 µM and 0.00352 µM and 0.00597 µM

Row | Structure (SMILES) | IC50
51 | NCCCN(c1nc(Nc2ccc3c(c2)S(=O)(=O)CC3)ncc1F)c1cccc2[nH]ncc12 [GTC000252A] | 0.00494 µM
52 | O=C1CCCc2cc(Nc3nccc(Nc4cccc5[nH]ncc45)n3)ccc21 [GTC000117A] | 0.0912 µM
53 | COC(=O)c1cccc(Nc2nccc(Nc3cccc4[nH]ncc34)n2)c1 [GTC000127B] | 0.25 µM and 0.0585 µM and 0.127 µM
54 | COCCCN(c1nc(Nc2ccc3c(c2)S(=O)(=O)NC3)ncc1F)c1cccc2[nH]ncc12 [GTC000228C] | 0.00245 µM and 0.0011 µM and 0.00207 µM and 0.00138 µM and 0.00335 µM and 0.00147 µM and 0.00208 µM and 0.007 µM and 0.00435 µM and 0.00202 µM and 0.00536 µM and 0.002 µM and 0.00366 µM and 0.00213 µM and 0.00286 µM
55 | COC(=O)CCCCN(c1ccnc(Nc2ccc3c(c2)S(=O)(=O)NC3)n1)c1cccc2[nH]ncc12 [GTC000296A] | 0.00504 µM and 0.0251 µM and 0.0216 µM
56 | COCCN(c1ccnc(Nc2ccc3c(c2)S(=O)(=O)NC3)n1)c1cccc2[nH]ncc12 [GTC000285A] | 0.00834 µM
57 | O=S1(=O)NCc2ccc(Nc3nccc(N(CCO)c4cccc5[nH]ncc45)n3)cc21 [GTC000223A] | 0.00345 µM
58 | CCN(c1nc(Nc2ccc3c(c2)C(=O)NC3)ncc1F)c1cccc2[nH]ncc12 [GTC000326A] | 0.0135 µM and 0.0173 µM and 0.0667 µM
59 | CCN(c1nc(Nc2ccc3cnn(CCCCO)c3c2)ncc1F)c1cccc2[nH]ncc12 [GTC000299A] | 0.0139 µM
60 | CCN(c1nc(Nc2ccc3c(c2)S(=O)(=O)NC3)ncc1Br)c1cccc2[nH]ncc12 [GTC000327A] | 0.0121 µM and 0.0215 µM and 0.0438 µM
61 | c1cc(Nc2ccnc(Nc3ccc4c(c3)CCO4)n2)c2cn[nH]c2c1 [GTC000111A] | 0.222 µM
62 | COCCCN(c1nc(Nc2cccc(-c3ocnc3C)c2)ncc1F)c1cccc2[nH]ncc12 [GTC000315A] | 0.0163 µM
63 | Cn1ncc2ccc(Nc3nccc(N(CCCCO)c4cccc5[nH]ncc45)n3)cc21 [GTC000274A] | 0.00589 µM
64 | Cn1ncc2cc(Nc3nccc(Nc4cccc5[nH]ncc45)n3)ccc21 [GTC000164A] | 0.0585 µM and 0.0861 µM and 0.214 µM
65 | O=C1Nc2ccc(Nc3nccc(N(CCO)c4cccc5[nH]ncc45)n3)cc2CO1 [GTC000258A] | 0.005 µM
66 | CC(=O)N1CCC(CN(c2ccnc(Nc3ccc4[nH]c(=O)[nH]c4c3)n2)c2cccc3[nH]ncc23)CC1 [GTC000339A] | 0.0431 µM and 0.0268 µM
67 | CCN(CC)CCCN(c1ccnc(Nc2ccc3c(c2)S(=O)(=O)NC3)n1)c1cccc2[nH]ncc12 [GTC000291A] | 0.0115 µM and 0.00721 µM
68 | CCN(c1nc(Nc2ccc3c(c2)S(=O)(=O)NC3)ncc1Cl)c1cccc2[nH]ncc12 [GTC000222A] | 0.0127 µM and 0.0156 µM and 0.00933 µM
69 | O=S1(=O)CCc2ccc(Nc3ncc(F)c(N(CCO)c4cccc5[nH]ncc45)n3)cc21 [GTC000254A] | 0.00475 µM
70 | O=S1(=O)NCc2ccc(Nc3nccc(N(CCCCO)c4cccc5[nH]ncc45)n3)cc21 [GTC000241A] | 0.0029 µM
71 | CS(=O)(=O)NCCCCCN(c1ccnc(Nc2ccc3[nH]c(=O)[nH]c3c2)n1)c1cccc2[nH]ncc12 [GTC000308A] | 0.0177 µM and 0.0154 µM
72 | CCN(c1nc(Nc2ccc3cnn(C)c3c2)ncc1Cl)c1cccc2[nH]ncc12 [GTC000334A] | 0.024 µM
73 | Cc1cc(=O)[nH]c2c(C)cc(Nc3nccc(Nc4cccc5[nH]ncc45)n3)cc12 [GTC000177A] | 0.0139 µM and 0.0431 µM and 0.0354 µM and 0.0196 µM
74 | Cc1cc(NC(=O)Cc2ccc(Nc3nccc(Nc4cccc5[nH]ncc45)n3)cc2)no1 [GTC000206A] | 0.64 µM
